Data published in PubChem BioAssay AID328 (DTP/NCI, 2004).
Where “and” joins values, the source holds several entries; their conditions need not be identical. Equal values may be shown once. Toxic doses and inconclusive results are not listed.

How the values were obtained:
[1] = system: BDF1 mice, P388 leukemia ip; test: NCI In Vivo Anticancer Drug Screen. Data for tumor model P388 Leukemia (intraperitoneal) in B6D2F1 (BDF1) mice; settings: endpoint: mean survival time, schedule: Q01DX009 (ip), vehicle: water, higher = longer survival
How it was run: (§1)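 T/C = treated-group survival ÷ vehicle-control survival; tumour transplanted into mice before dosing.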

[2] = system: BDF1 mice, P388 leukemia ip, median survival T/C; test: as above; settings: endpoint: median survival time, higher = longer survival
How it was run: as §1

SMILES: CCOC(CN(Cc1ccc(OCc2ccccc2)c(OC)c1)S(=O)(=O)c1ccc(C)cc1)OCC
- T/C ([1]; dose: 25.0 mg/kg/injection): 93 % of control
- T/C ([1]; dose: 50.0 mg/kg/injection): 97 % of control
- T/C ([1]; dose: 100.0 mg/kg/injection): 93 % of control
- T/C ([1]; dose: 200.0 mg/kg/injection): 90 % of control

SMILES: C/C=C(\C)C(=O)O[C@@H]1c2cc3c(cc2-c2c(cc(OC)c(OC)c2OC)[C@@H]2C(=O)OC[C@@H]12)OCO3
- T/C ([2]; dose: 1.0 mg/kg/injection, schedule: Q01DX009 (ip), vehicle: saline + alcohol): 100 % of control
- T/C ([2]; dose: 1.3 mg/kg/injection, schedule: Q01DX009 (ip), vehicle: saline): 90 % of control
- T/C ([2]; dose: 2.0 mg/kg/injection, schedule: Q01DX009 (ip), vehicle: saline + alcohol): 100 % of control
- T/C ([2]; dose: 2.0 mg/kg/injection, schedule: Q01DX009 (ip), vehicle: saline): 100 % of control
- T/C ([2]; dose: 3.0 mg/kg/injection, schedule: Q01DX009 (ip), vehicle: saline): 100 % of control
- T/C ([2]; dose: 4.0 mg/kg/injection, schedule: Q01DX009 (ip), vehicle: saline + alcohol): 109 % of control
- T/C ([2]; dose: 5.3 mg/kg/injection, schedule: Q01DX009 (ip), vehicle: saline with Tween-80): 110 % of control
- T/C ([2]; dose: 7.11 mg/kg/injection, schedule: Q01DX009 (ip), vehicle: saline + alcohol): 158 % of control
- T/C ([2]; dose: 8.0 mg/kg/injection, schedule: Q01DX009 (ip), vehicle: saline + alcohol): 118 % of control
- T/C ([2]; dose: 8.0 mg/kg/injection, schedule: Q01DX009 (ip), vehicle: saline with Tween-80): 110 % of control
- T/C ([2]; dose: 10.66 mg/kg/injection, schedule: Q01DX009 (ip), vehicle: saline + alcohol): 95 % of control
- T/C ([2]; dose: 12.0 mg/kg/injection, schedule: Q01DX009 (ip), vehicle: saline with Tween-80): 110 % of control
- T/C ([2]; dose: 16.0 mg/kg/injection, schedule: Q01DX009 (ip), vehicle: saline + alcohol): 91 % of control
- T/C ([2]; dose: 21.4 mg/kg/injection, schedule: Q01DX009 (ip), vehicle: saline): 110 % of control
- T/C ([2]; dose: 24.0 mg/kg/injection, schedule: Q01DX009 (ip), vehicle: saline + alcohol): 100 % of control
- T/C ([2]; dose: 32.0 mg/kg/injection, schedule: Q01DX009 (ip), vehicle: saline): 115 % of control
- T/C ([2]; dose: 48.0 mg/kg/injection, schedule: Q01DX009 (ip), vehicle: saline): 100 % of control and 120 % of control
- T/C ([2]; dose: 72.0 mg/kg/injection, schedule: Q01DX009 (ip), vehicle: saline): 113 % of control
- T/C ([2]; dose: 88.0 mg/kg/injection, schedule: Q01DX009 (ip), vehicle: saline): 95 % of control
- T/C ([2]; dose: 108.0 mg/kg/injection, schedule: Q01DX009 (ip), vehicle: saline): 95 % of control
- T/C ([2]; dose: 133.0 mg/kg/injection, schedule: Q01DX009 (ip), vehicle: saline): 100 % of control
- T/C ([2]; dose: 200.0 mg/kg/injection, schedule: Q01DX009 (ip), vehicle: saline): 90 % of control

SMILES: O=C(O)C(=O)O.[U]
- T/C ([2]; dose: 25.0 mg/kg/injection, schedule: Q04DX003 (ip), vehicle: saline with Tween-80): 100 % of control

SMILES: CCCCNC(=O)Nc1ccc(N(CC)CC)cc1
- T/C ([2]; dose: 100.0 mg/kg/injection, schedule: Q04DX003 (ip), vehicle: saline with Tween-80): 100 % of control
- T/C ([2]; dose: 200.0 mg/kg/injection, schedule: Q04DX003 (ip), vehicle: saline with Tween-80): 100 % of control
- T/C ([2]; dose: 400.0 mg/kg/injection, schedule: Q04DX003 (ip), vehicle: saline with Tween-80): 90 % of control

SMILES: O=C(CCC(=O)[O][Sn]([c]1ccccc1)([c]1ccccc1)[c]1ccccc1)[O][Sn]([c]1ccccc1)([c]1ccccc1)[c]1ccccc1
- T/C ([2]; dose: 0.39 mg/kg/injection, schedule: Q01DX009 (ip), vehicle: Klucel (hydroxypropylcellulose) (HPC)): 113 % of control
- T/C ([2]; dose: 0.78 mg/kg/injection, schedule: Q01DX009 (ip), vehicle: Klucel (hydroxypropylcellulose) (HPC)): 95 % of control
- T/C ([2]; dose: 1.56 mg/kg/injection, schedule: Q01DX009 (ip), vehicle: Klucel (hydroxypropylcellulose) (HPC)): 95 % of control
- T/C ([2]; dose: 3.12 mg/kg/injection, schedule: Q01DX009 (ip), vehicle: Klucel (hydroxypropylcellulose) (HPC)): 100 % of control and 104 % of control
- T/C ([2]; dose: 12.5 mg/kg/injection, schedule: Q01DX009 (ip), vehicle: Klucel (hydroxypropylcellulose) (HPC)): 120 % of control
- T/C ([2]; dose: 40.0 mg/kg/injection, schedule: Q04DX003 (ip), vehicle: Klucel (hydroxypropylcellulose) (HPC)): 104 % of control

SMILES: CCOC(=O)/C=C(\C)Nc1cccc([N+](=O)[O-])c1
- T/C ([2]; dose: 25.0 mg/kg/injection, schedule: Q01DX009 (ip), vehicle: other): 110 % of control
- T/C ([2]; dose: 50.0 mg/kg/injection, schedule: Q01DX009 (ip), vehicle: other): 93 % of control
- T/C ([2]; dose: 100.0 mg/kg/injection, schedule: Q01DX009 (ip), vehicle: other): 100 % of control
- T/C ([2]; dose: 200.0 mg/kg/injection, schedule: Q01DX009 (ip), vehicle: other): 110 % of control
- T/C ([2]; dose: 400.0 mg/kg/injection, schedule: Q01DX009 (ip), vehicle: other): 116 % of control
